# In patent US20240239762A1, “NOVEL HETEROCYCLIC COMPOUNDS” (FLORATEK PHARMA S.A., priority 2021, published 2024):
# “Also recorded” adds a separate entry of the source. Where two headings read alike, the source gives them in different places.
# Key:
# [1] = system: C. elegans; assay: Lifespan assay on the Automated Lifespan Machine; format: in vivo, Caenorhabditis elegans; details: 50 μM; for Max life span: 95th percentile of lifespans in each group; for Mean life span: calculated from the area under the survival curve; for Median life span: day 1 set at day 1 of adulthood, time at which 50% of the worms have died
# From the text: To prevent chemical modification or metabolism of the test article by the food bacteria, worms were fed on a lawn of UV-killed bacteria (UV-i bacteria). An overnight culture of E. coli strain WP-2 was pelleted, washed, filtered, and irradiated. A suspension of UV-i bacteria was spotted on NGM agar containing Streptomycin to inhibit the growth of contaminating bacteria. The quantity and distribution of food bacteria were calibrated to ensure adequate access to food for the duration of assay while maintaining visibility of the worms.
# Test compounds were soluble in 100% DMSO. The compounds were dissolved in a working solution and then combined directly with the food bacteria before seeding on agar plates. The food spots are dried slowly, allowing the compound to diffuse into the food bacteria and the agar for at least 24 hours before worms were introduced.
# The ALM used by InVivoBiosystems is based on the Caenorhabditis elegans lifespan machine published by Stroustrup et. Al [Stroustrup, N. et al. The Caenorhabditis elegans Lifespan Machine. Nat Methods 10, 665-670 (2013)], with proprietary modifications to improve temperature stability and image acquisition. The scanner unit consisted of a modified EPSON V850 and images were processed and analyzed using the ALM software. The machine time-of-death calls are trained and validated using the “storyboarding” feature of the ALM software.
# The lifespan assay was designed and performed according to published and validated methods [Amrit, F. R. G., Ratnappan, R., Keith, S. A. & Ghazi, A. The C. elegans lifespan assay toolkit. Methods 68, 465-475 (2014).] using a modified version of the Automated Lifespan Machine 7.
# The lifespan assay was initiated by expanding all replicate groups to more than 1000 worms, then synchronizing by bleaching and allowing larval worms to hatch and arrest. To suppress progeny, worms were transferred to media containing 5-Fluorodeoxyuridine (FUdR) within 54-60 hours post-plating. Worms were inspected 24 and 48 hours after this transfer to confirm infertility. Finally, the worms were inspected for general health and morphology before transferring to scanner plates. The scanner plates were transferred to scanners for automated imaging on day 3 of adulthood.
# Plates were immobilized inverted on the bed of an Automated Lifespan Machine which scanned two images per hour of the plates continuously for the next 40 days.
# Time of death calls exported from the ALM software was analyzed and plotted using the Lifelines software package developed by Cam Davidson-Pilon et. al [Davidson-Pilon, C et. al. Lifelines survival analysis package. CamDavidsonPilon/lifelines: vo. 25-9.]. Additional analysis was performed using the OASIS2 analysis software6.
# Worm movement was tracked from the images acquired by the ALM during the lifespan assay. Worm size and movement features were extracted and analyzed using custom software.
# [2] = system: C. elegans; assay: Global gene expression by mRNA sequencing (RNA-Seq), GO enrichment and pathway mapping; format: in vivo, Caenorhabditis elegans
# Description: To identify potential mechanisms of action through which SND305 and SND306 could affect aging, global gene expression was analyzed by mRNA sequencing (RNA-Seq). Worms were treated on the same media and conditions as the lifespan assay, then young worms were harvested at adult day 3 and aged worms harvested at adult day 10. Three replicates of treated samples were analyzed.
# More than 300 day 1 adult worms per replicate were harvested, cleaned by filtration, and frozen at −80° in Trizol. To extract RNA, samples were thawed, vigorously vortexed, and processed using the Direct-zol RNA Miniprep Kit (Zymo Research). All samples exceeded the threshold for RNA quantity and quality.
# The total RNA was then enriched for poly-mRNA using oligo(dT) paramagnetic beads. DNA libraries were then constructed from this input mRNA using the NEBNext Ultra™ II RNA Library Prep Kit. This created a ready-to-sequence dsDNA library that retained the strand-specific information in the original mRNA. These libraries were then further tested by the Qubit for concentration and the Agilent 2100 for library size distribution and quality. In order to properly pool the libraries and load them onto sequencing lanes to ensure the correct number of reads per sample, an even more precise quantification of the library was done via qPCR, and the samples were loaded onto the NovaSeq 6000 platform for a paired-end sequencing run of 150 bp for each end (PE150). The loading concentrations were designed to obtain at least 6.0 Gb (which is the number of billion bases of raw data, determined by the number of reads multiplied by the length of each read).
# The raw data set was analyzed for • 1. The distribution of base quality along the length of the sequencing read • 2. The distribution of error rate along the length of the sequencing read • 3. The distribution of A/T/G/C bases along the length of the sequencing read • 4. The distribution of raw data filtering results based on the following three criteria: • a. Removing reads containing adapter sequence • b. Removing reads with N>10% (where N means “base cannot be determined”) • c. Removing reads with a low quality (Qscore<=5) for 50% or more of its total bases
# Multidimensional scaling makes it possible to see strong patterns in large, complex data sets by reducing the data to two or three dimensions. When the data is plotted along these few dimensions, the samples form clustered based on their overall similarity to one another. The distance between samples is calculated based on the Biological Coefficient of Variation (BCV). Greater differences were observed between all conditions at Day 10 than at Day 3. To identify genes that are differentially expressed upon treatment with SND305 and SND306, the gene counts for each of the treated samples were compared against the control.
# GO enrichment analysis is a common approach that identifies functional groups form lists of differentially expressed genes. Genes are annotated based on functional categories (gene ontologies) that are further categorized by biological process (BP), molecular function (MF), or cellular compartment (CC). A comparison is made between the likelihood of seeing genes in that category (ontology) being enriched or depleted in the list of DEGs when compared to a random selection of genes.
# In order to identify which cellular pathways were most likely modulated by treatment with SND305 and SND306 and gain insight into how these pathways might contribute to mechanism of action (MoA), the genes differentially expressed after SND305 and SND306 treatment were mapped to core established longevity pathways from the literature. The mapping was then expanded to intersecting and supporting pathways. This placed the transcriptomic data within the context of well-characterized biological pathways, particularly several related to longevity.
# [3] = system: C. elegans strain SD1347; assay: Age-related sarcopenia model: muscle mitochondrial fragmentation scoring; format: in vivo, Caenorhabditis elegans; details: day 11; 50 μM; ANOVA and multiple comparisons (FIG. 8)
# Description: C. elegans strain SD1347 confirmed to have nuclear and mitochondrial GFP labeling in muscle was obtained from the Caenorhabditis Genetic Center.
# Synchronized worm populations were administered a single concentration of 50 μM SND compounds by exposure on NGM plates starting the day before adulthood. All plates contained 50 μM 5-Fluorodeoxyuridine (FUdR) to prevent progeny production. Animals were immobilized using NemaGel (InVivo Biosystems) and imaged within 1 hour. Worms were alive throughout imaging. For each worm imaged, one head and one tail image was collected from regions excluding the pharynx, vulva, and tip of the tail. For day 1, a single session imaged a minimum of 5 worms per condition.
# For aged worms, two total biological replicates were collected, each with 5-6 worms imaged per condition. Images were obtained using a Nikon Eclipse Ti2 spinning disk confocal microscope. After processing, each image was scored blindly in replicate groups by six viewers.
# Stock solutions of SND compounds were prepared by dissolving to 50 mM in DMSO. Working solutions were prepared such that the final concentration of compound in the total volume of the solid media would be 50 μM, and the DMSO concentration would not exceed 0.1% (e.g. 10 μl in a 10 mL dish). […]
# [4] = system: C. elegans; details: cited from earlier work
# [5] = aged (Day 10) worms, weighted by the p-value
compound,measurement,setting,value
"CO[C@H]1C[C@@H]2CC[C@@H](C)[C@@](O)(O2)C(=O)C(=O)N2CCCC[C@H]2C(=O)O[C@H]([C@H](C)C[C@@H]2CC[C@@H](O)[C@H](OC)C2)CC(=O)[C@H](C)/C=C(\C)[C@@H](O)[C@@H](OC)C(=O)[C@H](C)C[C@H](C)/C=C/C=C/C=C/1C [Rapamycin, reference compound]",Max life span,[1],33.0 days
same,Mean life span,[1],26.2 days
same,Median life span,[1],26.5 days
CC(C)NC(=O)Oc1ccc2c(c1)COc1cc(OC(=O)NC(C)C)ccc1-2 [SND306],Effect on lifespan,[1],increased the life span with statistical significance
same,Max life span,[1],34.6 days
same,Mean life span,[1],25.8 days
same,Median life span,[1],26.6 days
same,"Noteable GO categories enriched or depleted, Down",[2]; Day 3,hydrolase activity
same,"Noteable GO categories enriched or depleted, Up",[2]; Day 3,"structural constituent of cuticle (e.g. collagen), immune response, lipid"
same,"Noteable GO categories enriched or depleted, Down",[2]; Day 10,"extracellular region, immune response, response to other organism"
same,"Noteable GO categories enriched or depleted, Up",[2]; Day 10,"enrichment in genes involved with axon development and regeneration; also recorded: nervous system development, neurogenesis, regulation of gene expression"
same,Expression of genes specifically involved in axon regeneration,[2]; Day 10 (FIGS. 4 and 5),upregulation
same,Differentially expressed genes above threshold (volcano plot),"[2]; Day 10, P-value<0.05 and fold change >2.0",a large number of DEGs above threshold
same,"CTSB expression, fold down-",[2]; [5],> 5 fold
same,"CTSD expression, fold down-",[2]; [5],> 5 fold
same,"LAMP expression, fold up-",[2]; [5],> 5 fold
same,"Expression of cathepsin orthologs cpr-1, cpr-4, cpr-9",[2]; day 3 (FIGS. 2 and 3),upregulated
same,"Insulin Signaling (IIS) Pathway components daf-18, akt-1, and daf-16",[2]; day 3 (FIGS. 2 and 3),slight modulation
same,Sum of the mitochondrial fragmentation scores per image vs control,[3],significantly less fragmentation than the control
"O=c1oc2cc(O)ccc2c2ccc(O)cc12 [Urolithin A, urolithin A]",Sum of the mitochondrial fragmentation scores per image vs control,[3],did not reach statistical significance
same,Accumulation of dysfunctional mitochondria with age,[4],prevented the accumulation of dysfunctional mitochondria with age
same,Effect on lifespan,[4],extended lifespan
